What was measured:
[1] = Lucigenin assay, chloride transport in EYPC liposomes; conditions: lucigenin-containing liposomes
From the text: Phospholipid vesicles can be used as models for studying membrane insertion and permeabilization. Using an anion-selective probe in synthetic phospholipid liposomes, anion transport can be monitored by fluorescence. […] This basification was further enhanced with the addition of a base pulse to the external solution at 300 s, indicating either a transport of protons to the extravesicular solution, or the transport of hydroxyls to the intravesicular solution. This was also reported for alkylbiguanidium salts and was described as an electrogenic process, i.e. the transmembrane transport of an ion without the balance of the charge through the movement of another ion, which usually results in a charge transfer. […] […]. The transport of H^+/OH^− ions across the membrane is an electrogenic mechanism that usually causes the depolarization of the electrochemical gradient across phospholipid membranes. When EYPC-LUVs liposomes containing intravesicular K^+ ions are bathing in an extravesicular solution containing Na^+ ions a small membrane potential is generated at their membranes, and the fluorescence of Safranin-O can be used as a membrane potential probe. […].
Experimental. […] The fluorescence was monitored for 350 s.

[2] = system: NAD+/NADH ratio in PSN1 cells; assay: NAD/NADH quantification, PSN1 cells; format: cell-based; conditions: 15 µM, 6 h
Protocol: (§1) All chemicals were purchased from Aldrich Chemicals in their highest purity and used without further purification. Deuterated dimethylsulfoxide (DMSO-d^6) and deuterated chloroform (CDCl3) were purchased from CDN Isotopes. NMR spectra were recorded on Bruker advance 400 and 100 spectrometers. Coupling constants are given in hertz (Hz) and chemical shifts are given in parts per million (ppm, δ) measured relative to the residual solvent (the multiplicity of the signals are given as s: singlet, d: doublet, t: triplet, and m: multiplet). High-resolution mass spectra (HRMS) were recorded on a TSQ Quantum Ultra (Thermo Scientific) triple quadrupole with accurate mass option instrument (Université de Montréal Mass Spectrometry Facility). […] Transport and depolarization studies as well as absorbance measurements were performed on a Varian Cary Eclipse fluorescence spectrophotometer. The hemolysis assays were performed on a Fluostar Optima plate reader. […] A suitable crystal was selected and analysed on a Bruker Venture Metaljet diffractometer. Crystal violet retention assay was used for cell growth assays and IC50 were determined using Prism (GraphPad). NAD/NADH quantitation colorimetric kit (#K337-100) from Biovision was used according to manufacturer’s instructions. ECAR (extracellular acidification rate) and OCR of KP4 cells (oxygen consumption rate) were measured on a Seahorse XF-24 (Agilent). […]

[3] = system: NAD+/NADH ratio in KP4 cells; assay: NAD/NADH quantification, KP4 cells; format: cell-based, human
Protocol: as §1

[4] = system: AMPK; assay: Immunoblots of AMPK T172 and ACC S79 phosphorylation, KP4 cells; format: cell-based, human; conditions: 15 µM, 24 h
Protocol: Figure 3 Effects of biguanides on cell proliferation and viability in pancreatic cancer cells. […]. […] | decimal sign comma or point
. […]. Experimental. Cells were rinsed twice with 1X PBS, and lysed in Laemmli 2x (4% SDS, 20% glycerol, 120 mM Tris-HCl pH 6.8). Laemmli extracts were boiled for 5 minutes, then the concentration was assessed with NanoDrop (ThermoFisher) and equalized between samples. Lysates were supplemented with 10% beta-mercaptoethanol and 0.05% bromophenol blue and boiled again for 5 minutes. 25 µg of extracts were loaded on SDS-PAGE then transferred on nitrocellulose membranes for 1h30 at 130V. Membranes were rinsed in 1XPBS1-0.05% Tween-20 then blocked for 1h in 1XPBS, 0.05%-Tween-20 5% Milk. Membranes were rinsed again 3 x 10 min in PBS-Tween, then incubated overnight at 4°C with the following primary antibodies in 1XPBS-0.1%BSA, 0.02%Sodium azide: anti-phospho-AMPK T172 (1:1000, Rabbit, 2531S, Cell Signaling), anti-AMPKalpha (1:1000, Rabbit, 2532, Cell Signaling), anti-phospho-ACC S79 (1:1000, Rabbit Polyclonal, 3661S, Cell Signaling), or incubated for 1h at RT with anti-beta-Actin (1:2000, Mouse, 3700, Cell Signaling). […]

[5] = Solubility in methanol and DMSO; format: physicochemical; conditions: even at high concentrations

Q: Which “Chloride transport across EYPC-LUV membrane” value [1] does the source give for N=C(N)NC(=N)NCc1ccc(C#Cc2ccccc2)cc1 [1b, 4-(phenylethynyl)benzylbiguanide] here?
A: did not transport chloride

Q: What about the “Decrease of NAD+/NADH ratio” value [2] of the same compound?
A: 25%

Q: What about the “Decrease of NAD+/NADH ratio” value ([3]; KP4 cells, 15 µM, 18 h) of the same compound?
A: 40%

Q: What about the “Fold lower concentration than metformin for AMPK activation, decrease of NAD+/NADH ratio and mitochondrial respiration” value ([3]; abstract) of the same compound?
A: 800 fold

Q: And the “AMPK activation (phosphorylation of AMPK T172 and ACC)” value [4]?
A: induced AMPK activation

Q: What about the “Solubility in methanol and DMSO” value [5] of the same compound?
A: good methanol and DMSO solubility even at high concentrations
